Experiments:
[1] = for Particle size: MALVERN mastersizer 2000, dispersant: light liquid paraffin; for mean particle diameter: amorphous solid as isolated and dried
[2] = 75% relative humidity, 40° C.
[3] = versus product with particle size of above 100 μm

Molecule	Particle size [1] [μm]	mean particle diameter [1] [μm]	stability [2]	bioavailability [3]
COCCCOc1ccnc(C[S+]([O-])c2nc3ccccc3[nH]2)c1C.[Na] (racemic) [Example 1, (±)sodium-2-[[[4-(3-methoxypropoxy)-3-methyl-pyridinyl]methyl]sulfinyl]1H-benzimidazole]	10 to 50	10 to 50	–	–
COCCCOc1ccnc(C[S+]([O-])c2nc3ccccc3[nH]2)c1C.[Na] (racemic) [Example 2, (±)sodium-2-[[[4-(3-methoxypropoxy)-3-methyl-pyridinyl]methyl]sulfinyl]1H-benzimidazole]	15 to 55	15 to 55	–	–
COCCCOc1ccnc(C[S+]([O-])c2nc3ccccc3[nH]2)c1C.[Na] (racemic) [Example 6 of U.S. Pat. No. 5045552, (±)sodium-2-[[[4-(3-methoxypropoxy)-3-methyl-pyridinyl]methyl]sulfinyl]1H-benzimidazole, reference compound]	80 to 150	–	–	–
(±)sodium-2-[[[4-(3-methoxypropoxy)-3-methyl-pyridinyl]methyl]sulfinyl]1H-benzimidazole [amorphous rabeprazole sodium]	–	10 to 55	stable	better bioavailability
